Laboratory results from patent publication US9499550B2 (BRISTOL-MYERS SQUIBB COMPANY, priority 2012, dated 2016).
Like-named read-outs stand apart in the source and are kept apart here.

Key:
[1] = tested on: HCV genotype 1a (H77 strain) replicon in HUH-7 cells; test: HCV replicon luciferase reporter assay, genotype 1a; type: cell-based; conditions: Hepatitis C virus, Huh-7, 72 h, 3 days incubation, read-out: LE_1a (EC50, range)
Outline: (§1)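 Replicon inhibition for both genotypes was measured as Renilla luciferase signal (EnduRen, 7.5 μM final, 2 h) after 3-day, 37° C exposure of replicon-bearing HUH-7 cells in 4% FCS DMEM, 0.5% DMSO. The 1b construct carries S1179I; the 1a H77 construct carries P1496L and S2204I. Twenty-point, 3-fold dilutions were fitted four-parametrically for EC50, and CC50 was taken from multiplexed Cell Titer-Blue.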

[2] = tested on: HCV genotype 1b (Con1) replicon in HUH-7 cells; test: HCV replicon luciferase reporter assay, genotype 1b; type: cell-based; conditions: Hepatitis C virus, Huh-7, 72 h, 3 days incubation, read-out: LE_1b (EC50, range)
Outline: as §1

[3] = HCV genotype 1a replicon luciferase assay, range class
[4] = HCV genotype 1b replicon luciferase assay, range class
[5] = HCV genotype 1a replicon luciferase
[6] = HCV genotype 1b replicon luciferase

| SMILES | EC50 [1, 3] | EC50 [2, 4] | EC50 [1, 5] | EC50 [2, 6] |
| --- | --- | --- | --- | --- |
| COc1cc(F)cc2c(O[C@@H]3C[C@H]4C(=O)N[C@]5(C(=O)NS(=O)(=O)C6(CF)CC6)C[C@H]5/C=C\CC[C@@H](C)C[C@@H](C)[C@H](NC(=O)OC(C)(C)C(C)(F)F)C(=O)N4C3)nccc12 [Compound 3180, 3,3-difluoro-2-methylbutan-2-yl((2R,6S,7R,9R,13aS,14aR,16aS,Z)-2-((7-fluoro-5-methoxyisoquinolin-1-yl)oxy)-14a-(((1-(fluoromethyl)cyclopropyl)sulfonyl)carbamoyl)-7,9-dimethyl-5,16-dioxo-1,2,3,5,6,7,8,9,10,11,13a,14,14a,15,16,16a-hexadecahydrocyclopropa[e]pyrrolo[1,2-a][1,4]diazacyclopentadecin-6-yl)carbamate] | < 5.46 nM | < 5.46 nM | – | – |
| CC[C@@H]1C[C@H](C)CC/C=C\[C@@H]2C[C@@]2(C(=O)NS(=O)(=O)C2(C)CC2)NC(=O)[C@@H]2C[C@@H](Oc3nccc4cc(OC)c(F)cc34)CN2C(=O)[C@H]1NC(=O)N1CC(C)OC(C)C1 (stereo partly drawn) [Compound 4334, N-((2R,6S,7R,9R,13aS,14aR,16aS,Z)-7-ethyl-2-((7-fluoro-6-methoxyisoquinolin-1-yl)oxy)-9-methyl-14a-(((1-methylcyclopropyl)sulfonyl)carbamoyl)-5,16-dioxo-1,2,3,5,6,7,8,9,10,11,13a,14,14a,15,16,16a-hexadecahydrocyclopropa[e]pyrrolo[1,2-a][1,4]diazacyclopentadecin-6-yl)-2,6-dimethylmorpholine-4-carboxamide] | – | – | 1.01 to 5 nM | 1.01 to 5 nM |
| CC[C@@H]1C[C@H](C)CC/C=C\[C@@H]2C[C@@]2(C(=O)NS(=O)(=O)C2CC2)NC(=O)[C@@H]2C[C@@H](Oc3ncc(OC)c4ccc(F)cc34)CN2C(=O)[C@H]1NC(=O)OC(C)(C)C(C)(F)F [Compound 5469, 3,3-difluoro-2-methylbutan-2-yl((2R,6S,7R,9R,13aS,14aR,16aS,Z)-14a-((cyclopropylsulfonyl)carbamoyl)-7-ethyl-2-((7-fluoro-4-methoxyisoquinolin-1-yl)oxy)-9-methyl-5,16-dioxo-1,2,3,5,6,7,8,9,10,11,13a,14,14a,15,16,16a-hexadecahydrocyclopropa[e]pyrrolo[1,2-a][1,4]diazacyclopentadecin-6-yl)carbamate] | – | – | 1.01 to 5 nM | 0.1 to 0.5 nM |
| C[C@H]1CC/C=C\[C@@H]2C[C@@]2(C(=O)NS(=O)(=O)C2CC2)NC(=O)[C@@H]2C[C@@H](Oc3nccc4c5c(ccc34)OC(F)(F)O5)CN2C(=O)[C@@H](NC(=O)OCC2(C)CC2)[C@H](C)C1 [Compound 5271, (1-methylcyclopropyl)methyl ((2R,6S,7R,9S,13aS,14aR,16aS,Z)-14a-((cyclopropylsulfonyl)carbamoyl)-2-((2,2-difluoro-[1,3]dioxolo[4,5-f]isoquinolin-6-yl)oxy)-7,9-dimethyl-5,16-dioxo-1,2,3,5,6,7,8,9,10,11,13a,14,14a,15,16,16a-hexadecahydrocyclopropa[e]pyrrolo[1,2-a][1,4]diazacyclopentadecin-6-yl)carbamate] | – | – | 4.82 to 103 nM | 4.82 to 103 nM |
| COc1cc(F)cc2c(O[C@@H]3C[C@H]4C(=O)N[C@]5(C(=O)NS(=O)(=O)C6CC6)C[C@H]5/C=C\CC[C@@H](C)C[C@@H](C)[C@H](NC(=O)OC(C)(C)C)C(=O)N4C3)nccc12 [Compound 3164, tert-butyl ((2R,6S,7R,9R,13aS,14aR,16aS,Z)-14a-((cyclopropylsulfonyl)carbamoyl)-2-((7-fluoro-5-methoxyisoquinolin-1-yl)oxy)-7,9-dimethyl-5,16-dioxo-1,2,3,5,6,7,8,9,10,11,13a,14,14a,15,16,16a-hexadecahydrocyclopropa[e]pyrrolo[1,2-a][1,4]diazacyclopentadecin-6-yl)carbamate] | < 5.46 nM | < 5.46 nM | – | – |
